From publication PMC12446542, “Neddylation inhibitor MLN4924 enhances H3K18 lactylation via binding to LDH and downregulates ITGB4 to block metastasis” (The Journal of Biological Chemistry, 2025) come the findings set out here.

The assay deals with T1, LDHA (Homo sapiens, UniProt P00338).
T1 construct: purified recombinant LDHA protein (CUSABIO, CSB-EP012832HU)
Briefly: SPR (Biacore 8K, LDHA immobilized on CM5 chip, steady-state analysis); supported by CETSA in SK-BR-3 cells. In kind it is binding. The text has this:
SPR (Biacore 8K, LDHA immobilized on CM5 chip, steady-state analysis); supported by CETSA in SK-BR-3 cells on LDHA | using purified recombinant LDHA protein and MLN4924.

In the case of `NS(=O)(=O)OC[C@@H]1C[C@@H](n2ccc3c(N[C@H]4CCc5ccccc54)ncnc32)C[C@@H]1O` [MLN4924], binding was put at a Kd of 35.5 µM.
